Test results from US9012640B2, “Cabergoline derivatives” (MAP Pharmaceuticals, Inc., priority 2012, dated 2015).
Like-named read-outs stand apart in the source and are kept apart here.

Assays:
[1] = biological target: Recombinant human dopaminergic receptor D2L (Homo sapiens, UniProt P14416); assay: GTPγS functional assay; format: biochemical; settings: read-out: EC50, agonist activity with the D2L receptor
Procedure: (§1) Recombinant human dopaminergic receptor D1, D2L, and D4 and serotonin receptor 5-HT1B and 5-HTID activity was assayed using a GTPΥS functional assay with Compound 1 at concentrations between 0.01 nM and 10,000 nM.

[2] = biological target: Recombinant human dopaminergic receptor D1 (Homo sapiens, UniProt P21728); assay: GTPγS functional assay; format: biochemical
Procedure: as §1

[3] = biological target: T1, serotonin receptor 5-HT1D (Homo sapiens, UniProt P28221); assay: GTPγS functional assay; format: biochemical
Procedure: as §1

[4] = biological target: T2, Recombinant human dopaminergic receptor D4 (Homo sapiens, UniProt P21917); assay: GTPγS functional assay; format: biochemical
T2 sequence (P21917 1-419): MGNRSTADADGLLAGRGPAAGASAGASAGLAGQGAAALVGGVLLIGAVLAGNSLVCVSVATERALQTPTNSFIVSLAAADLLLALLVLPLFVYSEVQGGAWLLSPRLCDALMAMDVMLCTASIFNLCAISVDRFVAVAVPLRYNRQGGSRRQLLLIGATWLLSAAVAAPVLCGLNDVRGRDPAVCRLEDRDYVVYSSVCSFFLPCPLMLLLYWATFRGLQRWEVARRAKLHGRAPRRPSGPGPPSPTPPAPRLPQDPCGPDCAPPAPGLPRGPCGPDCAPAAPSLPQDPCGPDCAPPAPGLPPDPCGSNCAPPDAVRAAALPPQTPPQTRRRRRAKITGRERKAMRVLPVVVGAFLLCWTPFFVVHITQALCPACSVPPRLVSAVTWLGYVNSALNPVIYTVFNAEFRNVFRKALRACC
Procedure: as §1

[5] = biological target: T3, serotonin receptor 5-HT1B (Homo sapiens, UniProt P28222); assay: GTPγS functional assay; format: biochemical; settings: 0.01 nM to 10,000 nM
Procedure: as §1

[6] = biological target: T4, Recombinant human serotonin receptor 5-HT2B (Homo sapiens, UniProt P41595); assay: Aequorin assay, receptor agonist/antagonist activity, CHO-K1 cells; format: cell-based
T4 construct: expressed in transfected cells; host or cells: CHO-K1 (coexpressing mitochondrial apoaequorin)
Procedure: (§2) Compound 1 was synthesized as described above and assayed for receptor activity against a panel of dopaminergic and serotoninergic receptors. Recombinant human serotonin receptors 5-HT2A, and 5-HT2B were expressed in CHO-K1 cells and activity (receptor agonist/antagonist activity) was assayed using an Aequorin assay (coexpression of mitochondrial apoaequorin). Compound 1 was used at a concentration of 0.010 nM to 20,000 nM for agonist activity and 0.005 nM to 10,000 nM for antagonist activity.

[7] = biological target: T5, Recombinant human serotonin receptor 5-HT2A (Homo sapiens, UniProt P28223); assay: as above; format: cell-based
T5 construct: expressed in transfected cells; host or cells: CHO-K1 (coexpressing mitochondrial apoaequorin)
Procedure: as §2

[8] = biological target: T1, serotonin receptor 5-HT1D; settings: cited from earlier work
[9] = biological target: T5, Recombinant human serotonin receptor 5-HT2A; settings: reported, Newman-Tancredi et al. 2002; read-out: reported EC50 on 5-HT2A receptors; cited from earlier work
[10] = biological target: T3, serotonin receptor 5-HT1B; settings: read-out: EC50 on 5-HT1B receptors, reported; Newman-Tancredi et al. 2002; cited from earlier work
[11] = biological target: T2, Recombinant human dopaminergic receptor D4; settings: cited from earlier work
[12] = biological target: T4, Recombinant human serotonin receptor 5-HT2B; settings: reported, Newman-Tancredi et al. 2002; read-out: reported EC50 on 5-HT2B receptors; cited from earlier work

T5 sequence (P28223 whole entry): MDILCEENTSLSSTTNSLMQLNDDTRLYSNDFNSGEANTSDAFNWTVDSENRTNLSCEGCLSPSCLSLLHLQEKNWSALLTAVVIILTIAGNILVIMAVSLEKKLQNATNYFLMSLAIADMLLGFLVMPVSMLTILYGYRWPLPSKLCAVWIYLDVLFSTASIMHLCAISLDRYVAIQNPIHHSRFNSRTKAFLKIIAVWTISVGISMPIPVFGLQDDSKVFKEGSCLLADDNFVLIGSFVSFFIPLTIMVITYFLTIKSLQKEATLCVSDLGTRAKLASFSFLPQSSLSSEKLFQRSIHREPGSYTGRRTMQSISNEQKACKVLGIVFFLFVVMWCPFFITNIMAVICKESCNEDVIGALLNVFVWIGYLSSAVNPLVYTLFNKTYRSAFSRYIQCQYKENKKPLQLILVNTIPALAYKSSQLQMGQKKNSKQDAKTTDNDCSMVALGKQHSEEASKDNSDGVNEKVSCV
T1 sequence (P28221 whole entry): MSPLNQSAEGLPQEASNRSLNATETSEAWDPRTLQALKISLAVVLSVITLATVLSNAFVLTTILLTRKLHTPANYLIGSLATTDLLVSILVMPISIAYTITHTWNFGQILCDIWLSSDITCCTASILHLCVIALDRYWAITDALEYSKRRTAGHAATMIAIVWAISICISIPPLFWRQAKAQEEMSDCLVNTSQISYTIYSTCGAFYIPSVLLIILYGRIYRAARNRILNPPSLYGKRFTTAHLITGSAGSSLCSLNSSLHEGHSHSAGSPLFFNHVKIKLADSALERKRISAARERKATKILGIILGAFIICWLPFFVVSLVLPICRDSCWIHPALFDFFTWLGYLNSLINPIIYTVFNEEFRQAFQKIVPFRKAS
T4 sequence (P41595 whole entry): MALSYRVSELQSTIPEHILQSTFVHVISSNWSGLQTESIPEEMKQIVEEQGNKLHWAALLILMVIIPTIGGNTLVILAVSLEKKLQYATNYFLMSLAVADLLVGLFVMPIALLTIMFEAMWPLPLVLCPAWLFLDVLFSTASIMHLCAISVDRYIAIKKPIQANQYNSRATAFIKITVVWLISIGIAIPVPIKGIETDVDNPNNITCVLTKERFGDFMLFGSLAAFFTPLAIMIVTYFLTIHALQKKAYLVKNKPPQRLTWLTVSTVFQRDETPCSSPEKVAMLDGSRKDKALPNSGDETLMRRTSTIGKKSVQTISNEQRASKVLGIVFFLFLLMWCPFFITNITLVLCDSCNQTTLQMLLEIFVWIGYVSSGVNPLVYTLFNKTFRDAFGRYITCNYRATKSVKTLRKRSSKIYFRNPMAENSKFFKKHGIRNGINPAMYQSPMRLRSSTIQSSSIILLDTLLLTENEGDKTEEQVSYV
T3 sequence (P28222 whole entry): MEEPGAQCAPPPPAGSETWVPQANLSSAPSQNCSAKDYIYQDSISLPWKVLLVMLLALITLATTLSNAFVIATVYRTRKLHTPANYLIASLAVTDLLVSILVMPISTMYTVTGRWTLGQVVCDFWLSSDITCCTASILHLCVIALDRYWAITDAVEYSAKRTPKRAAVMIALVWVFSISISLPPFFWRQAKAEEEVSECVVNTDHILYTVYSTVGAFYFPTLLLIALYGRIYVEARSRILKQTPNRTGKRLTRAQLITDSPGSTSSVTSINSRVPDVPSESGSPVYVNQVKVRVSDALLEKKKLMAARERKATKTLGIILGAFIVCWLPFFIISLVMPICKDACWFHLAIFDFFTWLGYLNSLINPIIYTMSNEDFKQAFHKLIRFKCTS
Sequence of Recombinant human dopaminergic receptor D2L (P14416 whole entry): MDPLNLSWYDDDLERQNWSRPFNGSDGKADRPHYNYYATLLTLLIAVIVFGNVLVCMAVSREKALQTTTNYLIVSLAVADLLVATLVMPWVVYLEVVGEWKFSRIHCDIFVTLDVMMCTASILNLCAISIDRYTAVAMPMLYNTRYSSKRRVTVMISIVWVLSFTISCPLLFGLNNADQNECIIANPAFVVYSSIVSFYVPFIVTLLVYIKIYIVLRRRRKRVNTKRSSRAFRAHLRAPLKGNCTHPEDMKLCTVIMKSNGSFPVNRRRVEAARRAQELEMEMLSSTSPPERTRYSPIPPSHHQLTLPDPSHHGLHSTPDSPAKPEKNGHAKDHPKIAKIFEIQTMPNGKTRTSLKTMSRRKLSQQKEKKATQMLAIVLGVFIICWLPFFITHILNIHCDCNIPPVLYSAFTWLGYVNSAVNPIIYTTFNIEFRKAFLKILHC
Sequence of Recombinant human dopaminergic receptor D1 (P21728 whole entry): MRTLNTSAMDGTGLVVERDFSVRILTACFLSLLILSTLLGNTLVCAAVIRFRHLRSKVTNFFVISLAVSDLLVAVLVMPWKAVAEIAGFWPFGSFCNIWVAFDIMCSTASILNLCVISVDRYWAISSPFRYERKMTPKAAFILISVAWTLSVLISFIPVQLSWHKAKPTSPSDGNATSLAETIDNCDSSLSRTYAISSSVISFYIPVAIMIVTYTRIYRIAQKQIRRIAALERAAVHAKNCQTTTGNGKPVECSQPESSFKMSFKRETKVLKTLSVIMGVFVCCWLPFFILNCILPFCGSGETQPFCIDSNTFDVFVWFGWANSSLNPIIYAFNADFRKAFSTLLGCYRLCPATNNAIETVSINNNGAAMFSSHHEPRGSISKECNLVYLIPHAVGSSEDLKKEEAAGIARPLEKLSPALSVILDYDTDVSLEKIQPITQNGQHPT

In the case of `C=CCN1C[C@H](C(=O)N(CCCN(C)C)C(=O)NCC)C[C@@H]2c3cccc4[nH]c(C(F)(F)F)c(c34)C[C@H]21` [Compound 1], the EC50 [1] is reported as 12.6 nM, the “selectivity for the D2L receptor over the D1 receptor” value [2] is reported as “approximately 110 fold” and the “agonist activity on serotonin receptor 5-HT1D in words” value [3] is reported as “weak agonist activity”. It also gave an EC50 ([3]; GTPγS, read-out: EC50, agonist on 5-HT1D receptors) of 263 nM, an Emax ([3]; GTPγS, read-out: Emax on 5-HT1D receptors) of 31% and an Emax ([4]; GTPγS, receptor not given, follows the D2L/D4 comparison) of 26%. The “D2L to D4 receptor selectivity” value ([4]; when comparing EC50) was 18 fold, the “activity on 5-HT1B receptors” value [5] was “not active” and the EC50 ([6]; agonist activity, Aequorin assay, CHO-K1, read-out: EC50 on 5-HT2B receptors) was 6050 nM. The “5-HT2B receptor agonist activity in words” value ([6]; as compared to cabergoline) was “weak”, the EC50 ([7]; agonist activity, Aequorin assay, CHO-K1, read-out: EC50 on 5-HT2A receptors) was 946 nM and the “5-HT2A receptor agonist activity in words” value ([7]; as compared to cabergoline) was “weak”.
In the case of `C=CCN1C[C@H](C(=O)N(CCCN(C)C)C(=O)NCC)C[C@@H]2c3cccc4[nH]cc(c34)C[C@H]21` [cabergoline, Cabergoline], the EC50 ([8]; Newman-Tancredi et al. 2002, read-out: EC50 on 5-HT1D receptors, reported) is given as 16 nM, the “Emax on 5-HT1D receptors, cabergoline comparison” value ([8]; comparison value for cabergoline) is given as 68% and the EC50 [9] is given as 7.8 nM. For the same compound, the EC50 [10] was 2240 nM, the “D2L to D4 receptor selectivity, reported” value ([11]; reported results for cabergoline) was roughly 200 fold and the “Emax, reported” value ([11]; reported values, Newman-Tancredi et al. 2002, receptor not given) was 49%. The EC50 [12] was 2.6 nM.
